Values quoted from earlier work, collected in patent US20030207846A1, “Treatment of pain, inflammation, and inflammation-related disorders with a combination of a cyclooxygenase-2 selective inhibitor and aspirin” (Pharmacia Corporation, priority 2002, published 2003).

How the values were obtained:
[1] = test system: platelet aggregation and ex-vivo serum-generated thromboxane B2 production; conditions: healthy human subjects
[2] = test system: platelet function
[3] = test system: upper GI tract; conditions: low-dose 75-300 mg/day

Compound	tolerability ([1]; alone or in combination with the aspirin)	effect on the anti-platelet effects of aspirin (inhibition of platelet aggregation and ex-vivo serum-generated thromboxane B2 production) ([1]; rofecoxib 50 mg/day with aspirin 81 mg/day)	inhibition of platelet function ([2]; 40 mg, conditions of limited compliance)	efficacy as an antiplatelet agent ([2]; 100-300 mg/day, plain or slow release form)	risk of upper GI tract complications [3]
CS(=O)(=O)c1ccc(C2=C(c3ccccc3)C(=O)OC2)cc1 [rofecoxib]	well-tolerated	did not alter the anti-platelet effects of the aspirin			
CC(=O)Oc1ccccc1C(=O)O [aspirin, 2-(acetyloxy)benzoic acid]			not sufficient to inhibit platelet function	very effective	increased the risk of upper GI tract complications
